Results from patent publication US9795574B2, “Method for preparing agomelatine cocrystals and composition containing same” (SOONCHUNHYANG UNIVERSITY INDUSTRY ACADEMY COOPERATION …, priority 2014, dated 2017).

Experiments:
[1] = Intrinsic dissolution rate (IDR) of pellets, USP equipment 2 (paddle method); type: physicochemical; settings: for Dissolution rate (intrinsic dissolution rate in terms of ratio): 37° C., 50 rpm, ratio to agomelatine
Experimental: In order to measure the intrinsic dissolution rate (IDR) of agomelatine and the agomelatine-resorcinol co-crystal, 50 mg of agomelatine and 72.63 mg of the agomelatine-resorcinol co-crystal of Example 1 were molded into a number of pellets having a constant surface area and then subjected to a dissolution testing.
Each powder specimen was put in a 13 mm pellet die (Specac, UK), squeezed down under a weight of 0.5 ton for 2 minutes with a hydraulic compressor and then molded into pellets having a constant surface area of 1.33 cm^2.
The pellets thus obtained were immobilized in 900 ml of a testing solution (pH 1.2 HCl aqueous solution and pH 6.8 phosphate-buffer solution) at 37° C., which solution was stirred with USP equipment 2 (paddle method) operated at 50 rpm. Then, the concentration of the agomelatine released from the pellets was measured.
3 ml of the testing solution was collected each time of 3 min, 5 min, 10 min, 15 min, 20 min, 25 min, 30 min, 45 min, 60 min, 75 min, 90 min, 105 min, and 120 min. The concentration (dissolved amount) of agomelatine in the collected solution was measured with UV-3600 (Shimadzu, Japan) spectrochemical analysis equipment.
FIG. 11 presents the results of the dissolution testing for the agomelatine and the agomelatine-resorcinol co-crystal in an aqueous solution of HCl (pH 1.2) and a phosphate-buffered solution (pH 6.8).

[2] = Thermal stability testing: powder kept at 70° C., then X-ray diffraction analysis; type: physicochemical
Source text: In other words, the antisolvent method of the present invention makes it possible to produce an agomelatine-resorcinol co-crystal with higher stability.

[3] = Medium pH = 1.2 HCl aqueous solution
[4] = Medium pH = 6.8 phosphate-buffer solution

Molecule: COc1ccc2cccc(CCNC(C)=O)c2c1 [Agomelatine, agomelatine]
- Dissolution rate (intrinsic dissolution rate in terms of ratio) [1, 3]: 1.0
- Dissolution rate (intrinsic dissolution rate in terms of ratio) [1, 4]: 1.0

Molecule: agomelatine-resorcinol co-crystal [Example 1]
- Dissolution rate (intrinsic dissolution rate in terms of ratio) [1, 3]: 2.3
- Dissolution rate (intrinsic dissolution rate in terms of ratio) [1, 4]: 3.2
- dissolution rate higher than agomelatine ([1]; acidic medium (pH 1.2)): 2.3 fold
- dissolution rate higher than agomelatine ([1]; neutral medium (pH 6.8)): 3.2 fold
- crystal form after storage (XRD) ([2]; kept at 70° C. for 30 days): pure crystal form was maintained

Molecule: agomelatine-resorcinol co-crystal [Preparation Example 1, reference compound]
- crystal form after storage (XRD) ([2]; same temperature conditions (70° C.), 7 days): deformation occurred
